Source: PubChem BioAssay (NCI)
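All cell lines were grown in 96-well plates and treated with compound for 48 hours. GI50 = concentration required for 50% inhibition of growth. Definition used: TGI = concentration required for complete inhibition of growth.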

Key:
Test in all cases: DTP human tumour cell line panel, 48 h
COLO 205 colon = system: COLO 205 colon
SK-MEL-5 melanoma = system: SK-MEL-5 melanoma
PC-3 prostate = system: PC-3 prostate
UACC-257 melanoma = system: UACC-257 melanoma
NCI/ADR-RES ovarian = system: NCI/ADR-RES ovarian
MDA-MB-435 = system: MDA-MB-435
A549 NSCLC = system: A549 NSCLC
OVCAR-4 ovarian = system: OVCAR-4 ovarian
HOP-62 NSCLC = system: HOP-62 NSCLC
ACHN renal = system: ACHN renal
NCI-H226 lung = system: NCI-H226 lung
SR leukemia = system: SR leukemia
UO-31 renal = system: UO-31 renal
UACC-62 melanoma = system: UACC-62 melanoma
HCT-15 colon = system: HCT-15 colon
K-562 leukemia = system: K-562 leukemia
HCC-2998 colon = system: HCC-2998 colon
MOLT-4 leukemia = system: MOLT-4 leukemia
OVCAR-8 ovarian = system: OVCAR-8 ovarian
SNB-75 CNS = system: SNB-75 CNS
KM12 colon = system: KM12 colon
HS 578T breast = system: HS 578T breast
HCT-116 colon = system: HCT-116 colon
SK-MEL-28 melanoma = system: SK-MEL-28 melanoma
SK-OV-3 ovarian = system: SK-OV-3 ovarian
OVCAR-3 ovarian = system: OVCAR-3 ovarian
HT29 colon = system: HT29 colon
TK-10 renal = system: TK-10 renal
MDA-MB-231 breast = system: MDA-MB-231 breast
NCI-H460 lung = system: NCI-H460 lung
SN12C renal = system: SN12C renal
LOX IMVI melanoma = system: LOX IMVI melanoma
NCI-H23 lung = system: NCI-H23 lung
NCI-H522 lung = system: NCI-H522 lung
786-0 renal = system: 786-0 renal
SF-268 CNS = system: SF-268 CNS
U251 CNS = system: U251 CNS
DU-145 prostate = system: DU-145 prostate
SW-620 colon = system: SW-620 colon
CCRF-CEM leukemia = system: CCRF-CEM leukemia
CAKI-1 renal = system: CAKI-1 renal
T-47D breast = system: T-47D breast
SNB-19 CNS = system: SNB-19 CNS
MALME-3M melanoma = system: MALME-3M melanoma
EKVX NSCLC = system: EKVX NSCLC
OVCAR-5 ovarian = system: OVCAR-5 ovarian
MCF7 breast = system: MCF7 breast
M14 melanoma = system: M14 melanoma
SF-295 CNS = system: SF-295 CNS
SK-MEL-2 melanoma = system: SK-MEL-2 melanoma
IGROV1 ovarian = system: IGROV1 ovarian
HOP-92 NSCLC = system: HOP-92 NSCLC
RPMI-8226 leukemia = system: RPMI-8226 leukemia
HL-60(TB) leukemia = system: HL-60(TB) leukemia
RXF 393 renal = system: RXF 393 renal
A498 renal = system: A498 renal
BT-549 breast = system: BT-549 breast
SF-539 CNS = system: SF-539 CNS

## COc1ccc(/C=C/C(=O)/C=C(O)/C=C/c2ccc(OC)c(OC)c2)cc1OC
COLO 205 colon
  GI50: 34.4 µM
  TGI: > 100 µM
SK-MEL-5 melanoma
  GI50: 3.01 µM
  TGI: 12.7 µM
PC-3 prostate
  GI50: 2.88 µM
  TGI: > 100 µM
UACC-257 melanoma
  GI50: 33.9 µM
  TGI: 64.8 µM
NCI/ADR-RES ovarian
  GI50: 3.86 µM
  TGI: > 100 µM
MDA-MB-435
  GI50: 3.32 µM
  TGI: > 100 µM
A549 NSCLC
  GI50: 37.9 µM
  TGI: > 100 µM
OVCAR-4 ovarian
  GI50: 27.6 µM
  TGI: > 100 µM
HOP-62 NSCLC
  GI50: 9.23 µM
  TGI: 49.2 µM
ACHN renal
  GI50: 6.97 µM
  TGI: > 100 µM
NCI-H226 lung
  GI50: 3.59 µM
  TGI: > 100 µM
SR leukemia
  GI50: 1.68 µM
  TGI: > 100 µM
UO-31 renal
  GI50: 5.27 µM
  TGI: > 100 µM
UACC-62 melanoma
  GI50: 10.8 µM
  TGI: 38.3 µM
HCT-15 colon
  GI50: 3.76 µM
  TGI: > 100 µM
K-562 leukemia
  GI50: 1.16 µM
  TGI: > 100 µM
HCC-2998 colon
  GI50: 14.5 µM
  TGI: 34.9 µM
MOLT-4 leukemia
  GI50: 5.38 µM
  TGI: > 100 µM
OVCAR-8 ovarian
  GI50: 35.5 µM
  TGI: 95.9 µM
SNB-75 CNS
  GI50: 16.5 µM
  TGI: 69 µM
KM12 colon
  GI50: 2.84 µM
  TGI: > 100 µM
HS 578T breast
  GI50: 3.68 µM
  TGI: > 100 µM
HCT-116 colon
  GI50: 1.83 µM
  TGI: 5.96 µM
SK-MEL-28 melanoma
  GI50: 18.4 µM
  TGI: 44 µM
SK-OV-3 ovarian
  GI50: > 100 µM
  TGI: > 100 µM
OVCAR-3 ovarian
  GI50: 2.8 µM
  TGI: > 100 µM
HT29 colon
  GI50: 3.64 µM
  TGI: 22.3 µM
TK-10 renal
  GI50: 4.03 µM
  TGI: > 100 µM
MDA-MB-231 breast
  GI50: 6.19 µM
  TGI: > 100 µM
NCI-H460 lung
  GI50: 4.6 µM
  TGI: > 100 µM
SN12C renal
  GI50: 3.5 µM
  TGI: 90.9 µM
LOX IMVI melanoma
  GI50: 2.54 µM
  TGI: 17.9 µM
NCI-H23 lung
  GI50: 3.94 µM
  TGI: 21.8 µM
NCI-H522 lung
  GI50: 2.52 µM
  TGI: 7.53 µM
786-0 renal
  GI50: 3.03 µM
  TGI: 25.7 µM
SF-268 CNS
  GI50: 4.77 µM
  TGI: > 100 µM
U251 CNS
  GI50: 2.99 µM
  TGI: > 100 µM
DU-145 prostate
  GI50: 3.72 µM
  TGI: > 100 µM
SW-620 colon
  GI50: 1.85 µM
  TGI: > 100 µM
CCRF-CEM leukemia
  GI50: 3.66 µM
  TGI: > 100 µM
CAKI-1 renal
  GI50: 3.55 µM
  TGI: 23 µM
T-47D breast
  GI50: 76.9 µM
  TGI: > 100 µM
SNB-19 CNS
  GI50: 28 µM
  TGI: > 100 µM
MALME-3M melanoma
  GI50: 3.82 µM
  TGI: > 100 µM
EKVX NSCLC
  GI50: 4.13 µM
  TGI: > 100 µM
OVCAR-5 ovarian
  GI50: 6.42 µM
  TGI: 46.4 µM
MCF7 breast
  GI50: 0.493 µM
  TGI: > 100 µM
M14 melanoma
  GI50: 5.88 µM
  TGI: 27.7 µM
SF-295 CNS
  GI50: 6.36 µM
  TGI: > 100 µM
SK-MEL-2 melanoma
  GI50: 13.8 µM
  TGI: 63.1 µM
IGROV1 ovarian
  GI50: 3.43 µM
  TGI: > 100 µM
HOP-92 NSCLC
  GI50: 14.1 µM
  TGI: 98.4 µM
RPMI-8226 leukemia
  GI50: 0.559 µM
  TGI: 6.85 µM

## Cc1ccc(S(=O)(=O)Nn2c(S)c(C#N)c(-c3ccc(Cl)cc3)c(C#N)c2=O)cc1
COLO 205 colon
  TGI: > 100 µM
SK-MEL-5 melanoma
  TGI: 42.2 µM
PC-3 prostate
  TGI: > 100 µM
UACC-257 melanoma
  TGI: > 100 µM
NCI/ADR-RES ovarian
  TGI: 71.5 µM
MDA-MB-435
  TGI: 86.9 µM
A549 NSCLC
  TGI: > 100 µM
OVCAR-4 ovarian
  TGI: 43.2 µM
ACHN renal
  TGI: > 100 µM
NCI-H226 lung
  TGI: 66.5 µM
HL-60(TB) leukemia
  TGI: 65.8 µM
SR leukemia
  TGI: > 100 µM
UO-31 renal
  TGI: 57.5 µM
UACC-62 melanoma
  TGI: > 100 µM
HCT-15 colon
  TGI: 71.1 µM
K-562 leukemia
  TGI: > 100 µM
HCC-2998 colon
  TGI: > 100 µM
MOLT-4 leukemia
  TGI: > 100 µM
OVCAR-8 ovarian
  TGI: 50.8 µM
SNB-75 CNS
  TGI: > 100 µM
KM12 colon
  TGI: 88.4 µM
HCT-116 colon
  TGI: > 100 µM
SK-MEL-28 melanoma
  TGI: > 100 µM
SK-OV-3 ovarian
  TGI: > 100 µM
RXF 393 renal
  TGI: > 100 µM
OVCAR-3 ovarian
  TGI: > 100 µM
TK-10 renal
  TGI: 76 µM
A498 renal
  TGI: > 100 µM
MDA-MB-231 breast
  TGI: > 100 µM
NCI-H460 lung
  TGI: 31.4 µM
SN12C renal
  TGI: 69.7 µM
LOX IMVI melanoma
  TGI: > 100 µM
NCI-H23 lung
  TGI: > 100 µM
NCI-H522 lung
  TGI: 37.4 µM
786-0 renal
  TGI: > 100 µM
U251 CNS
  TGI: 58 µM
DU-145 prostate
  TGI: > 100 µM
SW-620 colon
  TGI: 51.7 µM
CCRF-CEM leukemia
  TGI: > 100 µM
CAKI-1 renal
  TGI: > 100 µM
BT-549 breast
  TGI: 41.9 µM
SNB-19 CNS
  TGI: > 100 µM
MALME-3M melanoma
  TGI: > 100 µM
EKVX NSCLC
  TGI: > 100 µM
OVCAR-5 ovarian
  TGI: > 100 µM
MCF7 breast
  TGI: > 100 µM
M14 melanoma
  TGI: > 100 µM
SF-295 CNS
  TGI: > 100 µM
SF-539 CNS
  TGI: 39.6 µM
SK-MEL-2 melanoma
  TGI: > 100 µM
IGROV1 ovarian
  TGI: 59.4 µM
HOP-92 NSCLC
  TGI: > 100 µM
RPMI-8226 leukemia
  TGI: 88.8 µM

## CC(=O)N1N=C(c2ccc(C)cc2)CC1c1cn(-c2ccccc2)nc1-c1cccc(Nc2ccnc3cc(Cl)ccc23)c1 (centres undefined)
COLO 205 colon
  GI50: > 100 µM
  TGI: > 100 µM
SK-MEL-5 melanoma
  GI50: > 100 µM
  TGI: > 100 µM
PC-3 prostate
  GI50: > 100 µM
  TGI: > 100 µM
UACC-257 melanoma
  GI50: > 100 µM
  TGI: > 100 µM
NCI-H226 lung
  GI50: > 100 µM
  TGI: > 100 µM
UO-31 renal
  GI50: > 100 µM
  TGI: > 100 µM
HCC-2998 colon
  GI50: > 100 µM
  TGI: > 100 µM
KM12 colon
  GI50: > 100 µM
  TGI: > 100 µM
SK-OV-3 ovarian
  GI50: > 100 µM
  TGI: > 100 µM
TK-10 renal
  GI50: > 100 µM
  TGI: > 100 µM
A498 renal
  GI50: > 100 µM
  TGI: > 100 µM
SF-268 CNS
  GI50: > 100 µM
  TGI: > 100 µM
CAKI-1 renal
  GI50: > 100 µM
  TGI: > 100 µM
BT-549 breast
  GI50: > 100 µM
  TGI: > 100 µM
IGROV1 ovarian
  GI50: > 100 µM
  TGI: > 100 µM
